Several values for one entry are separate records, joined by “and”; a condition that tells them apart may be missing. Equal entries are not always repeated. Where two headings read alike, the source gives them in different places.
Experiments:
[1] = molecular target: AAC(3)-Ia (Acinetobacter baumannii, UniProt D7R512); experiment: Isothermal titration calorimetry; assay type: binding
Description: (§1) To accurately measure protein ligand interactions, the concentration of our proteins of interest was measured spectrophotometrically using the NanoDrop OneC Spectrometer (Thermo Scientific). ITC experiments were performed on a MicroCal iTC 200 (General Electric) at 25 °C with stirring at 750 rpm. Unique buffer solutions were used for each enzyme. AAC(3)-Ia was prepared in 50 mM HEPES, pH 7, and 150 mM NaCl. AAC(3)-IIIa was prepared in 120 mM Tris, pH 7.5, and 150 mM NaCl. AAC(3)-XIa was prepared in 20 mM Tris, pH 7.5, and 150 mM NaCl. The cell contained 550 μM AAC(3)-Ia, 350 μM AAC(3)-IIIa, or 450 μM AAC(3)-XIa. All experiments also contained 5000 μM of coenzyme A trilithium salt in the cell. […] In all ITC experiments, aminoglycosides were prepared in the same buffering solution as the target protein. The ligands were injected 29 times ([…] per injection) with a 180 s interval between injections. Results were analyzed using ORIGIN software version 7E (MicroCal) using the molecular weight of a single protomer of each protein and fitted with a two-set of sites binding model (Supplementary Fig. 5). Data analysis was performed in Microsoft Excel and GraphPad5 software. One-way ANOVA and Tukey’s multiple comparison tests were used to determine the statistical significance of binding affinities.

[2] = molecular target: AAC(3)-XIa (Corynebacterium striatum, UniProt A0ABX7DED9); experiment: Isothermal titration calorimetry; assay type: binding; details: 25 °C, with coenzyme A, n = 3
Description: as §1

[3] = molecular target: T1, AAC(3)-IIIa (Pseudomonas aeruginosa, UniProt P29808); experiment: Isothermal titration calorimetry; assay type: binding, P. aeruginosa
T1 construct: 6xHis-tag (thrombin-cleavable, pET15b) (N); made in house; host or cells: LOBSTR E. coli
T1 sequence (P29808 whole entry): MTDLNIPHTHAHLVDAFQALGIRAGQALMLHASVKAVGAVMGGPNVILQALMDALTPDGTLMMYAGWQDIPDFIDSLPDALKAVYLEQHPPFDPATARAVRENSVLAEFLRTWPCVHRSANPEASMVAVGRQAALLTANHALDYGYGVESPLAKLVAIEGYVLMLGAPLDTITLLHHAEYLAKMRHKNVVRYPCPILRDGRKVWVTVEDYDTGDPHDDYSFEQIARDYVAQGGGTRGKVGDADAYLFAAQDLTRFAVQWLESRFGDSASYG
Description: as §1

[4] = test system: BL21(DE3) E. coli transformed with pUCP18 vector expressing untagged AAC(3)-IIIa; assay type: cell-based; details: E. coli expressing AAC(3)-IIIa; 12 μg mL^−1 antibiotic; 17 h
Description: (§2) Ten milliliters of LB containing […] ampicillin were inoculated from glycerol stocks of transformed BL21(DE3) E. coli containing genes expressing the proteins of interest in pUCP18 vectors. These cultures were incubated at 37 °C with 200 rpm agitation for 16 h. Turbidity was measured through OD600 with a NanoDrop OneC Spectrometer (Thermo Scientific). From the initial cultures, secondary 10 mL cultures were prepared with OD600 values of 0.1. These cultures were grown until OD600 values of 0.4–0.6 were reached and diluted to bring all cultures to the same OD600. Cultures were induced with 1 mM Isopropyl β-D-1-thiogalactopyranoside and incubated for 4 h. Two microliters of culture was added to 198 μL of LB with an appropriate aminoglycoside titration concentration. Each titration point was repeated n = 4 times. The formulated 96-well culture plate (Sarstedt) had OD600 measured on a 20-min interval over 17 h using a BioTek Cytation 5 Cell Imaging Multimode Reader, incubating at 37 °C with 282 cpm orbital agitation. Experiments were repeated with fresh cultures on separate days to ensure consistent trends. Data was analyzed in Microsoft Excel and GraphPad5. The remainder of the culture immediately had its RNA isolated for qPCR experiments.

[5] = test system: BL21(DE3) E. coli transformed with pUCP18 vector expressing untagged AAC(3)-Ia; assay type: cell-based; details: E. coli expressing AAC(3)-Ia; 12 μg mL^−1 antibiotic; 17 h
Description: as §2

[6] = test system: BL21(DE3) E. coli transformed with pUCP18 vector expressing untagged AAC(3)-XIa; assay type: cell-based
Description: as §2

[7] = AAC(3)-Ia, first set of sites, 25 °C, with coenzyme A, n = 3
[8] = AAC(3)-Ia, second set of sites, 25 °C, with coenzyme A, n = 3
[9] = AAC(3)-XIa, second set of sites
[10] = first set of sites, 25 °C, with coenzyme A, n = 3
[11] = second set of sites, 25 °C, with coenzyme A, n = 3

`CN[C@@H]1[C@@H](O)[C@@H](O[C@@H]2[C@@H](O)[C@H](O[C@H]3OC(CN)=CC[C@H]3N)[C@@H](N)C[C@H]2N)OC[C@]1(C)O` [Sisomicin, sisomicin] gave a TΔS [1, 7] of 3300 ± 427 cal/mol, a ΔG [1, 7] of -6250 ± 596 cal/mol and a ΔH [1, 7] of -2950 ± 416 cal/mol. For the same compound, the “N (sites)” value ([1]; AAC(3)-Ia, first set of sites, two-set of sites model, 25 °C, with coenzyme A, n = 3) was 0.50 ± 0.06 sites, the “N2 (sites)” value [1, 8] was 0.54 ± 0.01 sites and the “TΔS 2” value [1, 8] was 3450 ± 795 cal/mol. The “ΔG 2” value [1, 8] was -5660 ± 1100 cal/mol, the “ΔH 2” value [1, 8] was -2210 ± 763 cal/mol and the Kd ([1]; Kd2, AAC(3)-Ia, second set of sites, 25 °C, with coenzyme A, n = 3) was 71.8 ± 7.5 µM. The Kd ([1]; Kd, AAC(3)-Ia, first set of sites, two-set of sites model, 25 °C, with coenzyme A, n = 3) was 26 ± 0.6 µM, the Kd ([1]; Kd, AAC(3)-Ia, individual replicates, raw data behind Fig. 6) was 26.2 µM and 24.9 µM and 27 µM and the TΔS ([2]; AAC(3)-XIa, first set of sites) was -4510 ± 378 cal/mol. The ΔG ([2]; AAC(3)-XIa, first set of sites) was -8120 ± 530 cal/mol, the ΔH ([2]; AAC(3)-XIa, first set of sites) was −12,600 ± 372 cal/mol and the “N (sites)” value ([2]; AAC(3)-XIa, first set of sites, two-set of sites model) was 0.51 ± 0.01 sites. The “N2 (sites)” value [2, 9] was 0.36 ± 0.04 sites, the “TΔS 2” value [2, 9] was 7295 ± 1615 cal/mol and the “ΔG 2” value [2, 9] was -6237 ± 2237 cal/mol. The “ΔH 2” value [2, 9] was 1058 ± 1548 cal/mol, the Kd ([2]; Kd2, AAC(3)-XIa, second set of sites) was 27.1 ± 4.2 µM and the Kd ([2]; Kd, AAC(3)-XIa, first set of sites, two-set of sites model) was 1.1 ± 0.02 µM. For the same compound, the TΔS [3, 10] was -411 ± 318 cal/mol, the ΔG [3, 10] was -8050 ± 474 cal/mol and the ΔH [3, 10] was -8460 ± 351 cal/mol. For the same compound, the “N (sites)” value ([3]; first set of sites, two-set of sites model, 25 °C, with coenzyme A, n = 3) was 0.35 ± 0.03 sites, the Kd ([3]; first set of sites, two-set of sites model, 25 °C, with coenzyme A, n = 3, read-out: Kd) was 1300 ± 100 nM and the Kd ([3]; individual replicates, raw data behind Fig. 6, read-out: Kd) was 1420 nM and 1170 nM and 1230 nM. For the same compound, the “N2 (sites)” value [3, 11] was 0.56 ± 0.04 sites, the “TΔS 2” value [3, 11] was 2000 ± 146 cal/mol and the “ΔG 2” value [3, 11] was -7740 ± 204 cal/mol. The “ΔH 2” value [3, 11] was -5740 ± 143 cal/mol, the Kd ([3]; second set of sites, 25 °C, with coenzyme A, n = 3, read-out: Kd2) was 2100 ± 200 nM and the “Growth (OD600 growth curve)” value [4] was “none of the strains of transformed E. coli were able to grow at all”. The “Growth (OD600 growth curve)” value [5] was “none of the strains of transformed E. coli were able to grow at all”, the OD600 growth curve ([6]; 3 ug/mL Sisomicin, time point 12:39:10) was 0.741 and 0.631 and 0.615 and 0.786 and the OD600 growth curve ([6]; 3 ug/mL Sisomicin, time point 12:59:10) was 0.747 and 0.634 and 0.621 and 0.795. For the same compound, the OD600 growth curve ([6]; 3 ug/mL Sisomicin, time point 13:19:10) was 0.745 and 0.632 and 0.619 and 0.794, the OD600 growth curve ([6]; 3 ug/mL Sisomicin, time point 13:39:10) was 0.742 and 0.632 and 0.619 and 0.79 and the OD600 growth curve ([6]; 3 ug/mL Sisomicin, time point 13:59:10) was 0.738 and 0.632 and 0.618 and 0.787. The OD600 growth curve ([6]; 3 ug/mL Sisomicin, time point 14:19:10) was 0.744 and 0.634 and 0.623 and 0.797, the OD600 growth curve ([6]; 3 ug/mL Sisomicin, time point 14:39:10) was 0.747 and 0.635 and 0.625 and 0.799 and the OD600 growth curve ([6]; 3 ug/mL Sisomicin, time point 14:59:10) was 0.745 and 0.635 and 0.627 and 0.795. For the same compound, the OD600 growth curve ([6]; 6 ug/mL Sisomicin, time point 12:39:10) was 0.62 and 0.602 and 0.749 and 0.849, the OD600 growth curve ([6]; 6 ug/mL Sisomicin, time point 12:59:10) was 0.627 and 0.606 and 0.748 and 0.838 and the OD600 growth curve ([6]; 6 ug/mL Sisomicin, time point 13:19:10) was 0.634 and 0.612 and 0.751 and 0.829. For the same compound, the OD600 growth curve ([6]; 6 ug/mL Sisomicin, time point 13:39:10) was 0.639 and 0.613 and 0.744 and 0.819, the OD600 growth curve ([6]; 6 ug/mL Sisomicin, time point 13:59:10) was 0.641 and 0.612 and 0.741 and 0.805 and the OD600 growth curve ([6]; 6 ug/mL Sisomicin, time point 14:19:10) was 0.645 and 0.615 and 0.738 and 0.792. The OD600 growth curve ([6]; 6 ug/mL Sisomicin, time point 14:39:10) was 0.654 and 0.626 and 0.749 and 0.784, the OD600 growth curve ([6]; 6 ug/mL Sisomicin, time point 14:59:10) was 0.663 and 0.629 and 0.759 and 0.771 and the OD600 growth curve ([6]; 6 ug/mL Sisomicin, time point 15:19:10) was 0.67 and 0.64 and 0.762. For the same compound, the OD600 growth curve ([6]; 12 ug/mL Sisomicin, time point 12:39:10) was 0.093 and 0.101 and 0.109 and 0.105, the OD600 growth curve ([6]; 12 ug/mL Sisomicin, time point 12:59:10) was 0.093 and 0.101 and 0.109 and 0.105 and the OD600 growth curve ([6]; 12 ug/mL Sisomicin, time point 13:19:10) was 0.093 and 0.101 and 0.108 and 0.104. The OD600 growth curve ([6]; 12 ug/mL Sisomicin, time point 13:39:10) was 0.093 and 0.101 and 0.108 and 0.104, the OD600 growth curve ([6]; 12 ug/mL Sisomicin, time point 13:59:10) was 0.093 and 0.1 and 0.108 and 0.104 and the OD600 growth curve ([6]; 12 ug/mL Sisomicin, time point 14:19:10) was 0.093 and 0.1 and 0.108 and 0.103. For the same compound, the OD600 growth curve ([6]; 12 ug/mL Sisomicin, time point 14:39:10) was 0.093 and 0.1 and 0.108 and 0.103, the OD600 growth curve ([6]; 12 ug/mL Sisomicin, time point 14:59:10) was 0.093 and 0.1 and 0.107 and 0.103 and the OD600 growth curve ([6]; 12 ug/mL Sisomicin, time point 15:19:10) was 0.093. The “Growth (OD600 growth curve)” value ([6]; E. coli expressing AAC(3)-XIa, 12 μg mL^−1 antibiotic, 17 h) was “none of the strains of transformed E. coli were able to grow at all”.

Source: PMC12378234, “Enzyme-mediated aminoglycoside resistance without target mimicry” (Communications Chemistry, 2025)
